Assay results published in ChEMBL document CHEMBL1201862, “PubChem BioAssay data set” (2004).
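48-hour exposure; five concentrations; linearly interpolated endpoints. At the GI50, growth is halved.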 Active and inactive are the calls of the source. Rule as the data show it: active = GI50 up to about 1.1 µM and inactive = higher.

How the values were obtained:
Assay in all cases: growth of human tumour cells (NCI), 48 h
HCT-116 = tested on: HCT-116
HL-60 = tested on: HL-60
K562 = tested on: K562
MCF7 = tested on: MCF7
OVCAR-8 = tested on: OVCAR-8
SR = tested on: SR
UO-31 = tested on: UO-31
786-0 = tested on: 786-0
A498 = tested on: A498
A549 = tested on: A549
ACHN = tested on: ACHN
CAKI-1 = tested on: CAKI-1
CCRF-CEM = tested on: CCRF-CEM
COLO 205 = tested on: COLO 205
DU-145 = tested on: DU-145
EKVX = tested on: EKVX
HCC 2998 = tested on: HCC 2998
HCT-15 = tested on: HCT-15
HOP-62 = tested on: HOP-62
HOP-92 = tested on: HOP-92
HT-29 = tested on: HT-29
IGROV-1 = tested on: IGROV-1
KM12 = tested on: KM12
LOX IMVI = tested on: LOX IMVI
M14 = tested on: M14
MDA-MB-231 = tested on: MDA-MB-231
MDA-MB-435 = tested on: MDA-MB-435
MDA-N = tested on: MDA-N
MOLT-4 = tested on: MOLT-4
Malme-3M = tested on: Malme-3M
NCI-H226 = tested on: NCI-H226
NCI-H23 = tested on: NCI-H23
NCI-H460 = tested on: NCI-H460
NCI-H522 = tested on: NCI-H522
NCI/ADR-RES = tested on: NCI/ADR-RES
OVCAR-3 = tested on: OVCAR-3
OVCAR-4 = tested on: OVCAR-4
OVCAR-5 = tested on: OVCAR-5
PC-3 = tested on: PC-3
RXF 393 = tested on: RXF 393
SF-268 = tested on: SF-268
SF-295 = tested on: SF-295
SF-539 = tested on: SF-539
SK-MEL-28 = tested on: SK-MEL-28
SK-MEL-2 = tested on: SK-MEL-2
SK-MEL-5 = tested on: SK-MEL-5
SK-OV-3 = tested on: SK-OV-3
SN12C = tested on: SN12C
SNB-19 = tested on: SNB-19
SNB-75 = tested on: SNB-75
SW-620 = tested on: SW-620
T47D = tested on: T47D
TK-10 = tested on: TK-10
U-251 = tested on: U-251
UACC-257 = tested on: UACC-257
UACC-62 = tested on: UACC-62
Hs-578T = tested on: Hs-578T
RPMI-8226 = tested on: RPMI-8226

`CC(=O)c1ccc(NC(=O)CSc2nc(C)nc3c2sc(=S)n3-c2ccccc2)cc1` was tested, and the GI50 (HCT-116) was 3 µM (inactive), the GI50 (HL-60) was 2.99 µM (inactive) and the GI50 (K562) was > 10 µM (inactive). For the same molecule, the GI50 (MCF7) was > 10 µM (inactive), the GI50 (OVCAR-8) was > 10 µM (inactive) and the GI50 (SR) was 2.2 µM (inactive). The GI50 (UO-31) was 9.42 µM (inactive).
With `CCOC(=O)c1c(-c2ccc(Cl)cc2)c(C#N)c(=S)n(C2OC(COC(C)=O)C(OC(C)=O)C(OC(C)=O)C2OC(C)=O)c1C` (stereo unspecified) the GI50 (786-0) was > 100 µM (inactive), the GI50 (A498) was 74 µM (inactive) and the GI50 (A549) was > 100 µM (inactive). For the same molecule, the GI50 (ACHN) was > 100 µM (inactive), the GI50 (CAKI-1) was > 100 µM (inactive) and the GI50 (CCRF-CEM) was > 100 µM (inactive). The GI50 (COLO 205) was > 100 µM (inactive), the GI50 (DU-145) was > 100 µM (inactive) and the GI50 (EKVX) was > 100 µM (inactive). For the same molecule, the GI50 (HCC 2998) was > 100 µM (inactive), the GI50 (HCT-116) was > 100 µM (inactive) and the GI50 (HCT-15) was over 100 µM. For the same molecule, the GI50 (HL-60) was > 100 µM (inactive), the GI50 (HOP-62) was > 100 µM (inactive) and the GI50 (HOP-92) was 0.125 µM (active). The GI50 (HT-29) was > 100 µM (inactive), the GI50 (IGROV-1) was > 100 µM (inactive) and the GI50 (K562) was > 100 µM (inactive). The GI50 (KM12) was > 100 µM (inactive), the GI50 (LOX IMVI) was > 100 µM (inactive) and the GI50 (M14) was > 100 µM (inactive). The GI50 (MCF7) was > 100 µM (inactive), the GI50 (MDA-MB-231) was > 100 µM (inactive) and the GI50 (MDA-MB-435) was > 100 µM (inactive). For the same molecule, the GI50 (MDA-N) was > 100 µM (inactive), the GI50 (MOLT-4) was > 100 µM (inactive) and the GI50 (Malme-3M) was > 100 µM (inactive). The GI50 (NCI-H226) was > 100 µM (inactive), the GI50 (NCI-H23) was > 100 µM (inactive) and the GI50 (NCI-H460) was > 100 µM (inactive). For the same molecule, the GI50 (NCI-H522) was > 100 µM (inactive), the GI50 (NCI/ADR-RES) was > 100 µM (inactive) and the GI50 (OVCAR-3) was > 100 µM (inactive). The GI50 (OVCAR-4) was 90.2 µM (inactive), the GI50 (OVCAR-5) was > 100 µM (inactive) and the GI50 (OVCAR-8) was > 100 µM (inactive). For the same molecule, the GI50 (PC-3) was 0.759 µM (active), the GI50 (RXF 393) was > 100 µM (inactive) and the GI50 (SF-268) was > 100 µM (inactive). The GI50 (SF-295) was > 100 µM (inactive), the GI50 (SF-539) was > 100 µM (inactive) and the GI50 (SK-MEL-28) was > 100 µM (inactive). The GI50 (SK-MEL-2) was 1.77 µM (inactive), the GI50 (SK-MEL-5) was > 100 µM (inactive) and the GI50 (SK-OV-3) was > 100 µM (inactive). For the same molecule, the GI50 (SN12C) was > 100 µM (inactive), the GI50 (SNB-19) was > 100 µM (inactive) and the GI50 (SNB-75) was 0.689 µM (active). For the same molecule, the GI50 (SR) was > 100 µM (inactive), the GI50 (SW-620) was > 100 µM (inactive) and the GI50 (T47D) was > 100 µM (inactive). For the same molecule, the GI50 (TK-10) was > 100 µM (inactive), the GI50 (U-251) was > 100 µM (inactive) and the GI50 (UACC-257) was > 100 µM (inactive). The GI50 (UACC-62) was > 100 µM (inactive) and the GI50 (UO-31) was 0.565 µM (active).
In the case of `O=C(NCc1ccccc1)c1cnc(Cl)cn1`, the GI50 (786-0) is reported as > 100 µM (inactive), the GI50 (A498) is reported as > 100 µM (inactive) and the GI50 (A549) is reported as > 100 µM (inactive). For the same molecule, the GI50 (ACHN) was 20.1 µM (inactive), the GI50 (CAKI-1) was 16.2 µM (inactive) and the GI50 (CCRF-CEM) was 23.1 µM (inactive). The GI50 (COLO 205) was > 100 µM (inactive), the GI50 (DU-145) was > 100 µM (inactive) and the GI50 (EKVX) was > 100 µM (inactive). The GI50 (HCC 2998) was 17.3 µM (inactive), the GI50 (HCT-116) was 79.8 µM (inactive) and the GI50 (HCT-15) was 23.1 µM. For the same molecule, the GI50 (HL-60) was > 100 µM (inactive), the GI50 (HOP-92) was 13.7 µM (inactive) and the GI50 (HT-29) was 33.2 µM (inactive). The GI50 (Hs-578T) was 43.2 µM (inactive), the GI50 (IGROV-1) was 42.8 µM (inactive) and the GI50 (KM12) was > 100 µM (inactive). The GI50 (LOX IMVI) was 28.8 µM (inactive), the GI50 (M14) was 60.8 µM (inactive) and the GI50 (MCF7) was > 100 µM (inactive). For the same molecule, the GI50 (MDA-MB-231) was 85.5 µM (inactive), the GI50 (MDA-MB-435) was 62.7 µM (inactive) and the GI50 (MOLT-4) was 27.1 µM (inactive). For the same molecule, the GI50 (Malme-3M) was 34.3 µM (inactive), the GI50 (NCI-H226) was > 100 µM (inactive) and the GI50 (NCI-H23) was 23.3 µM (inactive). The GI50 (NCI-H460) was > 100 µM (inactive), the GI50 (NCI-H522) was 2.12 µM (inactive) and the GI50 (NCI/ADR-RES) was 16.6 µM (inactive). For the same molecule, the GI50 (OVCAR-3) was 31.2 µM (inactive), the GI50 (OVCAR-4) was 16.7 µM (inactive) and the GI50 (OVCAR-8) was 52.4 µM (inactive). The GI50 (RPMI-8226) was 44.2 µM (inactive), the GI50 (RXF 393) was > 100 µM (inactive) and the GI50 (SF-268) was > 100 µM (inactive). For the same molecule, the GI50 (SF-295) was > 100 µM (inactive), the GI50 (SF-539) was > 100 µM (inactive) and the GI50 (SK-MEL-28) was > 100 µM (inactive). For the same molecule, the GI50 (SK-MEL-2) was 48.1 µM (inactive), the GI50 (SK-MEL-5) was 54 µM (inactive) and the GI50 (SK-OV-3) was > 100 µM (inactive). For the same molecule, the GI50 (SN12C) was > 100 µM (inactive), the GI50 (SNB-19) was 63.8 µM (inactive) and the GI50 (SNB-75) was 29.7 µM (inactive). The GI50 (SR) was 20.7 µM (inactive), the GI50 (SW-620) was > 100 µM (inactive) and the GI50 (T47D) was 74 µM (inactive). For the same molecule, the GI50 (TK-10) was > 100 µM (inactive), the GI50 (U-251) was 48.2 µM (inactive) and the GI50 (UACC-257) was 53 µM (inactive). For the same molecule, the GI50 (UACC-62) was > 100 µM (inactive) and the GI50 (UO-31) was 18.1 µM (inactive).
